Laboratory results reported in ChEMBL document CHEMBL3045241, “Design, synthesis, and docking studies of novel telmisartanglitazone hybrid analogs for the treatment of metabolic syndrome” (Med Chem Res, 2009).
Activity calls are given as the source filed them. The rule behind the calls is not given here.

What was measured:
[1] = target: T1, Peroxisome proliferator-activated receptor gamma (Mus musculus) (UniProt P37238); assay: Agonist activity at Mus musculus (mouse) PPARgamma LBD expressed in african green monkey CV-1 cells co-expressing GAL4 assessed as […] at 1 uM after 24 hr by luciferase assay relative to rosiglitazone; assay type: cell-based
T1 sequence (whole entry): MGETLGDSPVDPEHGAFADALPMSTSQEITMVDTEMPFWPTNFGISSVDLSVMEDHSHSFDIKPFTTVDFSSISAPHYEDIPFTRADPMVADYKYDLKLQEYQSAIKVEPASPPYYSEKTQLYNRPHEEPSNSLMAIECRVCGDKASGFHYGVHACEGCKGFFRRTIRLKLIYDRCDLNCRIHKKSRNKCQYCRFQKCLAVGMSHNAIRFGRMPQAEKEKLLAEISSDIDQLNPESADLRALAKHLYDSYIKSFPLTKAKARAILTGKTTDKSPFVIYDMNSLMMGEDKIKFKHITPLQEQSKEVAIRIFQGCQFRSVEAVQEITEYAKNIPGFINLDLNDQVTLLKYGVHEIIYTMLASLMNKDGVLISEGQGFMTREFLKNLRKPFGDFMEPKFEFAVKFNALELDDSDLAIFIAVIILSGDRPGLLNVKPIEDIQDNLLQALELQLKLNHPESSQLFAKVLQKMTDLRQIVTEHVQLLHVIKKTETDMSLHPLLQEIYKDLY

[2] = target: T2, Type-1 angiotensin II receptor A (Rattus norvegicus, UniProt P25095); assay: Displacement of [125I]-SI-Ang-2 from AT1 receptor in Rattus norvegicus Sprague-Dawley (rat) liver membranes after 2 hr; parameters: species or system Membrane
T2 sequence (P25095 whole entry): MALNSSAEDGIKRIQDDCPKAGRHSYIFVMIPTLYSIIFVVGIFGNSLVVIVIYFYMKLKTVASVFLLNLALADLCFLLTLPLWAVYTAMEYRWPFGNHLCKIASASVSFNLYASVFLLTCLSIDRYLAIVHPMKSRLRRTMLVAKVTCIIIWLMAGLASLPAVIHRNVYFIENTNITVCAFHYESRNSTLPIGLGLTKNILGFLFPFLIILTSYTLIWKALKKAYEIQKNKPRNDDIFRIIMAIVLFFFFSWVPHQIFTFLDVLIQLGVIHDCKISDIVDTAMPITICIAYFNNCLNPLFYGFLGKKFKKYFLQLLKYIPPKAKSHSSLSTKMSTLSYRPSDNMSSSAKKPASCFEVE

[3] = tested on: 3T3-L1; assay: Induction of adipocyte differentiation in Mus musculus (mouse) 3T3L1 cells at 1 to 5 uM; assay type: functional, cell-based

Structure (SMILES)	%max [1] [%]	Ki [2] [µM]	Activity [3]
COC(=O)c1cc(CC2SC(=O)NC2=O)ccc1OCCn1c(CCCCC2CCCCC2)nc2ccccc21 (stereo unspecified)	38.7	> 10	–
CCCc1nc2c(C)cc(-c3nc4ccccc4n3C)cc2n1CCOc1ccc(CC2SC(=O)NC2=O)cc1C(=O)OC (stereo unspecified)	–	> 10	–
CCCc1nc2c(C)cc(-c3ccccc3)cc2n1CCOc1ccc(CC2SC(=O)NC2=O)cc1C(=O)OC (stereo unspecified)	11.9	> 10	–
COC(=O)c1cc(CC2SC(=O)NC2=O)ccc1OCCN(C)C(=O)CCCCC1CCCCC1 (stereo unspecified)	90.4	> 10	–
CCCc1nc2c(C)cc(Br)cc2n1CCOc1ccc(CC2SC(=O)NC2=O)cc1C(=O)OC (stereo unspecified)	51.6	> 10	–
CCCc1nc2c(C)cc(-c3nc4ccccc4n3C)cc2n1Cc1ccc(-c2ccccc2C(=O)O)cc1	21.2	–	Active
